# Results published in patent US20100016355A1, “ALPHA-2B ADRENERGIC RECEPTOR AGONIST AND SEROTONIN-NOREPINEPHRINE REUPTAKE INHIBITOR COMPOSITIONS FOR TREATING CHRONIC PAIN” (priority 2006, published 2010).
# System: Chung rat model of chronic pain (allodynia)
# Assay: Chung rat model of chronic pain
# Format: in vivo
# Conditions: rats
# Protocol: Amitriptyline was administered intraperitoneally to rats at a minimally effective dose; that is, the compound was administered at a dose that, when administered alone, is the minimum dose required to relieve pain (this dose was calculated by finding, first, the dose that produced drug's maximum effect—that is, the dose that fully alleviated pain—and dividing that dose by […]; the result is a dose that is slightly less than 50% of the dose that is required to produce the drug's maximum effect) The rats then immediately received one of two alpha-2B receptor agonists, compound No. 95 and compound no. No. 27, or received no additional compound, at all. Compound No. 95 and Compound No. 27 were administered intraperitoneally at ineffective doses; that is, these compounds were administered at doses that, when administered alone, are not effective in relieving pain. Pain reversal was then assessed using the Chung rat model of chronic pain. The model is described by Kim and Chung, Pain, […], at 355-363 (1992) and in U.S. Pat. No. 7,091,232, both of which are incorporated by reference herein.
structure (smiles),measurement,setting,value
"CN(C)CCC=C1c2ccccc2CCc2ccccc21 [Amitriptyline, reference compound]",Pain Reversal,"amitriptyline alone, 30 μg/kg intraperitoneally (minimally effective dose)",43%
same,Pain Reversal,"amitriptyline alone, 30 μg/kg intraperitoneally (minimally effective dose), listed as amitriptyline",43%
C1=NC(CC2CCc3ccccc3C2)CN1 (stereo not shown) [Compound No. 27],Pain Reversal,Compound No. 27 10 μg/kg i.p. (ineffective dose alone) given immediately after amitriptyline 30 μg/kg i.p.,81%
C[C@@H](c1c[nH]c(=S)[nH]1)c1cccc2ncccc12 [Compound No. 95],Pain Reversal,Compound No. 95 1 μg/kg i.p. (ineffective dose alone) given immediately after amitriptyline 30 μg/kg i.p.,80%
